Measured values taken from patent publication US6897306B2, “3-heterocyclylpropanohydroxamic acids” (Pfizer Products, Inc., priority 1999, dated 2005).
Read-outs that look alike come from different tables or passages of the source. Where a SMILES comes first, the peptide text is derived from it. [ ]: non-standard residue; d: D form. The star is where a group is joined. Sta = CC(C)C[C@H](N)[C@@H](O)CC(=O)O; Isovaleryl = CC(C)CC(=O)*

B1: α2-Macroglobuline: protein reported to at least partially inhibit PCP activity (protein, UniProt P01023 24-1474, looked up)
Alpha-2-macroglobulin: SVSGKPQYMVLVPSLLHTETTEKGCVLLSYLNETVTVSASLESVRGNRSLFTDLEAENDVLHCVAFAVPKSSSNEEVMFLTVQVKGPTQEFKKRTTVMVKNEDSLVFVQTDKSIYKPGQTVKFRVVSMDENFHPLNELIPLVYIQDPKGNRIAQWQSFQLEGGLKQFSFPLSSEPFQGSYKVVVQKKSGGRTEHPFTVEEFVLPKFEVQVTVPKIITILEEEMNVSVCGLYTYGKPVPGHVTVSICRKYSDASDCHGEDSQAFCEKFSGQLNSHGCFYQQVKTKVFQLKRKEYEMKLHTEAQIQEEGTVVELTGRQSSEITRTITKLSFVKVDSHFRQGIPFFGQVRLVDGKGVPIPNKVIFIRGNEANYYSNATTDEHGLVQFSINTTNVMGTSLTVRVNYKDRSPCYGYQWVSEEHEEAHHTAYLVFSPSKSFVHLEPMSHELPCGHTQTVQAHYILNGGTLLGLKKLSFYYLIMAKGGIVRTGTHGLLVKQEDMKGHFSISIPVKSDIAPVARLLIYAVLPTGDVIGDSAKYDVENCLANKVDLSFSPSQSLPASHAHLRVTAAPQSVCALRAVDQSVLLMKPDAELSASSVYNLLPEKDLTGFPGPLNDQDNEDCINRHNVYINGITYTPVSSTNEKDMYSFLEDMGLKAFTNSKIRKPKMCPQLQQYEMHGPEGLRVGFYESDVMGRGHARLVHVEEPHTETVRKYFPETWIWDLVVVNSAGVAEVGVTVPDTITEWKAGAFCLSEDAGLGISSTASLRAFQPFFVELTMPYSVIRGEAFTLKATVLNYLPKCIRVSVQLEASPAFLAVPVEKEQAPHCICANGRQTVSWAVTPKSLGNVNFTVSAEALESQELCGTEVPSVPEHGRKDTVIKPLLVEPEGLEKETTFNSLLCPSGGEVSEELSLKLPPNVVEESARASVSVLGDILGSAMQNTQNLLQMPYGCGEQNMVLFAPNIYVLDYLNETQQLTPEIKSKAIGYLNTGYQRQLNYKHYDGSYSTFGERYGRNQGNTWLTAFVLKTFAQARAYIFIDEAHITQALIWLSQRQKDNGCFRSSGSLLNNAIKGGVEDEVTLSAYITIALLEIPLTVTHPVVRNALFCLESAWKTAQEGDHGSHVYTKALLAYAFALAGNQDKRKEVLKSLNEEAVKKDNSVHWERPQKPKAPVGHFYEPQAPSAEVEMTSYVLLAYLTAQPAPTSEDLTSATNIVKWITKQQNAQGGFSSTQDTVVALHALSKYGAATFTRTGKAAQVTIQSSGTFSSKFQVDNNNRLLLQQVSLPELPGEYSMKVTGEGCVYLQTSLKYNILPEKEEFPFALGVQTLPQTCDEPKAHTSFQISLSVSYTGSRSASNMAIVDVKMVSGFIPLKPTVKMLERSNHVSRTEVSSNHVLIYLDKVSNQTLSLFFTVLQDVPVRDLKPAIVKVYDYYETDEFAIAEYNAPCSKDLGNA
B2: ovostatin: protein reported to at least partially inhibit PCP activity (protein, UniProt P20740 37-1473, looked up)
Ovostatin: KEPEPQYVLMVPAVLQSDSPSQVCLQFFNLNQTISVRVVLEYDTINTTIFEKNTTTSNGLQCLNFMIPPVTSVSLAFISFTAKGTTFDLKERRSVMIWNMESFVFVQTDKPIYKPGQSVMFRVVALDFNFKPVQEMYPLIAVQDPQNNRIFQWQNVTSEINIVQIEFPLTEEPILGNYKIIVTKKSGERTSHSFLVEEYVLPKFDVTVTAPGSLTVMDSELTVKICAVYTYGQPVEGKVQLSVCRDFDSYGRCKKSPVCQSFTKDLDTDGCLSHILSSKVFELNRIGYKRNLDVKAIVTEKEQVCNLTATQSISITQVMSSLQFENVDHHYRRGIPYFGQIKLVDKDNSPISNKVIQLFVNNKNTHNFTTDINGIAPFSIDTSKIFDPELSLKALYKTSDQCHSEGWIEPSYPDASLSVQRLYSWTSSFVRIEPLWKDMSCGQKRMITVYYILNTEGYEHINIVNFYYVGMAKGKIVLTGEIKVNIQADQNGTFMIPLVVNEKMAPALRLLVYMLHPAKELVADSVRFSIEKCFKNKVQLQFSEKQMLTTSNVSLVIEAAANSFCAVRAVDKSMLLLKSETELSAETIYNLHPIQDLQGYIFNGLNLEDDPQDPCVSSDDIFHKGLYYRPLTSGLGPDVYQFLRDMGMKFFTNSKIRQPTVCTRETVRPPSYFLNAGFTASTHHVKLSAEVAREERGKRHILETIREFFPETWIWDIILINSTGKASVSYTIPDTITEWKASAFCVEELAGFGMSVPATLTAFQPFFVDLTLPYSIIHGEDFLVRANVFNYLNHCIKINVLLLESLDYQAKLISPEDDGCVCAKIRKSYVWNIFPKGTGDVLFSITAETNDDEACEEEALRNIRIDYRDTQIRALLVEPEGIRREETQNFLICMKDDVISQDVAIDLPTNVVEGSPRPSFSVVGDIMGTAIQNVHQLLQMPFGNGEQNMVLFAPNIYVLDYLDKTRQLSEDVKSKTIGYLVSGYQKQLSYKHPDGSYSTFGIRDKEGNTWLTAFVYKSFAEASRFIYIDDNVQAQTLIWLATKQKTDGCFQSTGILVNNAMKGGVENELSLSAYITIALLEAGHSMSHTVIRNAFYCLETASEKNITDIYTQALVAYAFCLAGKAEICESFLRELQKSAKEVDGSKYWEQNQRSAPEKSHLLDHVQSTDVEITSYVLLALLYKPNRSQEDLTKASAIVQWIIRQQNSYGGFASMQDTVVALQALAAYGAATYNSVTQNVIKINSKNTFEKVFTVNNENRLLLQQTPLPQVPGKYSLTVNGTGCVLIQTALRYNIHLPEGAFGFSLSVQTSNASCPRDQPGKFDIVLISSYTGKRSSSNMVIIDVKMLSGFVPVKSSLDQLIDDHTVMQVEYKKNHVLLYLGNILQKRRKEVTFSVEQDFVVTHPKPAPVQIYDYYETEEYAVAEYMSLCRGVVEEMG

What was measured:
PCP = settings: cited from earlier work
[1] = Dynamic Vapour Sorption (moisture sorption); type: physicochemical
Method: Melting points were determined using open glass capillary tubes and a Gallenkamp melting point apparatus and are uncorrected. Nuclear magnetic resonance (NMR) data were obtained using Varian Unity Inova-400, Varian Unity Inova-300 or Bruker AC300 spectrometers and are quoted in parts per million from tetramethylsilane. Mass spectral (MS) data were obtained on a Finnigan Mat. TSQ 7000 or a Fisons Instruments Trio 1000. The calculated and observed ions quoted refer to the isotopic composition of lowest mass. Infra red (1R) spectra were measured using a Nicolet Magna 550 Fourier transform infra-red spectrometer. Flash chromatography refers to column chromatography on silica gel (Kieselgel 60, 230-400 mesh, from E. Merck, Darmstadt. Kieselgel 60 F254 plates from E. Merck were used for TLC, and compounds were visualised using UV light, 5% aqueous potassium permanagate or Dragendorff's reagent (oversprayed with aqueous sodium nitrite). Thermal analyses by Differential Scanning Calorimetry (DSC) and ThermoGravimetric Analysis (TGA) were obtained using Perkin Elmer DSC7 and TGA7. Moisture sorption characteristics were recorded using Surface Measurement Systems Ltd. Automated Water Sorption Analyser DVS 1. Water content was determined on a Mitsubishi CA100 (Coulometric Karl Fisher Titrator). Powder X-ray diffraction (PXRD) pattern was determined using a Siemens D5000 powder X-ray diffractometer fitted with an automatic sample changer, a theta-theta goniometer, automatic beam divergence slits, a secondary monochromator and a scintillation counter. Other measurements were taken using standard equipment. Hexane refers to a mixture of hexanes (hplc grade) b.p. 65-70° C. Ether refers to diethyl ether. Acetic acid refers to glacial acetic acid. 1-Hydroxy-7-aza-1H-1,2,3-benzotriazole (HOAt), N-[(dimethylamino)-1H-1,2,3-triazolo[4,5-b]pyridin-1-ylmethylene]-N-methylmethaninium hexafluorophosphate N-oxide (HATU) and 7-azabenzotriazol-1-yloxytris(pyrrolidino)phosphonium hexafluorophosphate (PyAOP) were purchased from PerSeptive Biosystems U.K. Ltd. “DIPE” refers to diisopropyl ether. Reverse-phase silica gel for flash chromatography was obtained from Fluka (Fluka 100, C18, 40-63μ). Pentane refers to High Performance Liquid Chromatography (HPLC) grade n-pentane (b.pt.35-37° C.). Nomenclature has been allocated using a program available from IUPAC. Standard abbreviations are used throughout, e.g. “Me” is methyl, “Et” is ethyl, “Pr” is propyl, “Ph” is phenyl, etc. It was noticed that during certain repetitions of the methods disclosed in the Examples and Preparations that some racemisation appeared to have taken place. It was found in some cases that specific desired enantiomers can be separated from mixtures thereof by routine methods such as by differential crystallisation. • ^aHPLC autopurification performed using 2 columns—Phenomonex LUNA C8 150×21.2 mm, 10 μm and Phenomonex […] C18 150×21.2 mm, […], eluting with a gradient system of organic solvent [ammonium acetate (aq) 100 mM:acetonitrile (1:9)]:aqueous solvent [ammonium acetate (aq) 100 mM:acetonitrile (9:1)] • ^bHPLC autopurification performed using 2 columns—Phenomonex LUNA C8 150×21.2 mm, 10 μm and Phenomonex […] C18 150×21.2 mm, 5 μm, eluting with a gradient system of organic solvent (acetonitrile):aqueous solvent (0.1% aqueous trifluoroacetic acid)

| Molecule | PCP inhibition (in words) (PCP; literature reports) | also measured |
| --- | --- | --- |
| O=C(C[C@@H](CCCC1CCCCC1)c1nc(C(=O)NCc2ccccn2)no1)NO [Example 10, 5-{(1R)-4-Cyclohexyl-1-[2-(hydroxyamino)-2-oxoethyl]butyl}-N-(2-pyridinylmethyl) -1,2,4-oxadiazole-3-carboxamide] |  | melting point: 128 to 130 °C |
| CC(C)C[C@H](NC(=O)[C@@H](NC(=O)N[C@@H](Cc1ccccc1)C(=O)O)[C@@H]1CCN=C(N)N1)C(=O)N[C@H](C=O)Cc1ccccc1 [chymostatin] | relatively strong inhibitors |  |
| NC(=O)c1noc([C@H](CCCC2CCCCC2)CC(=O)NO)n1 [Example 2(b), 5-{(1R)-4-Cyclohexyl-1-[2-(hydroxyamino)-2-oxoethyl]butyl}-1,2,4-oxadiazole-3-carboxamide Monohydrate] |  | Dynamic Vapour Sorption ([1]; 2% RH (30° C.)): 4.84 % w/w; Dynamic Vapour Sorption ([1]; 20% RH (30° C.)): 5.17 % w/w; Dynamic Vapour Sorption ([1]; below 1% RH (30° C.)): significant dehydration |
| concanavalin A | inhibitory at low concentrations |  |
| O[C@H](CS)[C@H](O)CS (racemic) [Dithiothreitol] | inhibitory at low concentrations |  |
| N=C(N)NCCC[C@H](N)C(=O)O [arginine] | inhibited |  |
| NCCCC[C@H](N)C(=O)O [lysine] | inhibited |  |
| CC(C)CC(=O)N[C@H](C(=O)N[C@H](C(=O)N[C@@H](CC(C)C)[C@@H](O)CC(=O)N[C@@H](C)C(=O)N[C@@H](CC(C)C)[C@@H](O)CC(=O)O)C(C)C)C(C)C [pepstatin A] (Isovaleryl-VV[Sta]A[Sta]-OH) | relatively strong inhibitors |  |
| [Zn+2] [Zn^2+] | inhibitory at low concentrations |  |
| [Cd+2] [Cd^2+] | inhibitory at low concentrations |  |
| NC(=O)c1noc([C@H](CCCC2CCCCC2)CC(=O)NO)n1 [Example 2(c), 5-{(1R)-4-Cyclohexyl-1-[2-(hydroxyamino)-2-oxoethyl]butyl}-1,2,4-oxadiazole-3-carboxamide (Anhydrous)] |  | Dynamic Vapour Sorption ([1]; 15% RH (30° C.)): 0.18 % w/w; Dynamic Vapour Sorption ([1]; 30% RH (30° C.)): 0.23 % w/w; Dynamic Vapour Sorption, hydration behaviour ([1]; 60% RH (30° C.), converting to the monohydrate (XRD)): hydrates slowly; Dynamic Vapour Sorption, equilibrium ([1]; 90% RH (30° C.)): 5.3 % w/w |
| Tris-HCl [Tris-HCl buffer] |  | PCP inhibition (in words) (PCP; buffer concentration 0.2-0.5M): markedly inhibited activity |
| [Cu+2] [Cu^2+] | inhibitory at low concentrations |  |
| CCCCCCCCCCCCOS(=O)(=O)[O-].[Na+] [SDS] | inhibitory at low concentrations |  |
| B1 | at least partially inhibit |  |
| B2 | at least partially inhibit |  |
